Measurements taken from ChEMBL document CHEMBL5291721, “A preclinical secondary pharmacology resource illuminates target-adverse drug reaction associations of marketed drugs” (Nat Commun, 2023).

What was measured:
Acetylcholinesterase = Acetylcholinesterase (Homo sapiens, UniProt P22303); assay type: functional
[1] = target: T1, Alpha-1A adrenergic receptor (Homo sapiens, UniProt P35348); assay type: functional, cell-based
T1 sequence (P35348 whole entry): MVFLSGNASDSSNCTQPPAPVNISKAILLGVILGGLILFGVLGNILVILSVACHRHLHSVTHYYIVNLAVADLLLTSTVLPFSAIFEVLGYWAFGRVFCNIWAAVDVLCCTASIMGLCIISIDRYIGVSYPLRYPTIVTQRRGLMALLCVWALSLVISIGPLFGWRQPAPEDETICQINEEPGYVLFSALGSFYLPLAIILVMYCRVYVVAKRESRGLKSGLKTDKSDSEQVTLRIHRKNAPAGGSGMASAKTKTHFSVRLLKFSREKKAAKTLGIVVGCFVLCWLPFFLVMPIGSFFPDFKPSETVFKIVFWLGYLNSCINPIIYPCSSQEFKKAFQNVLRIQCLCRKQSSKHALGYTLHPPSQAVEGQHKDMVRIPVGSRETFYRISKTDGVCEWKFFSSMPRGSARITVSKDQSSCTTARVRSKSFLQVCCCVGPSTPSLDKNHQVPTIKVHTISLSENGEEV

[2] = target: T2, Alpha-2A adrenergic receptor (Homo sapiens, UniProt P08913)
T2 sequence (P08913 whole entry): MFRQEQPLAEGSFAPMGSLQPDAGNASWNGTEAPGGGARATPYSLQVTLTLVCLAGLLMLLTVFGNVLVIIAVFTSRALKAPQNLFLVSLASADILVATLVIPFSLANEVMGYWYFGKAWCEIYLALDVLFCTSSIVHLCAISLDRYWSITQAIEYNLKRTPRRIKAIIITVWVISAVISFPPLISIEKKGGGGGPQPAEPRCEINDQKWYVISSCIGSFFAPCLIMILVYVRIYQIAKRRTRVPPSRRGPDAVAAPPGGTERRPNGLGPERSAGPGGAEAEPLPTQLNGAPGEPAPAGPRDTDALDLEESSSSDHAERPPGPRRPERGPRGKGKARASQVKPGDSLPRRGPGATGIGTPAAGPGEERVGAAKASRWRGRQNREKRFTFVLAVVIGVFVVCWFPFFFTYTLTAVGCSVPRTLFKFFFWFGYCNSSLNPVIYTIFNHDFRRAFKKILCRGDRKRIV

D(1A) dopamine receptor = D(1A) dopamine receptor (Homo sapiens, UniProt P21728)
D(3) dopamine receptor = D(3) dopamine receptor (Homo sapiens, UniProt P35462)
Prothrombin = Prothrombin (Homo sapiens, UniProt P00734); assay type: functional
[3] = target: Voltage-gated inwardly rectifying potassium channel KCNH2 (Homo sapiens, UniProt Q12809); assay type: functional; details: read-out: AC50
[4] = target: cGMP-inhibited 3',5'-cyclic phosphodiesterase 3A (Homo sapiens, UniProt Q14432); assay type: functional
Progesterone receptor = target: T3, Progesterone receptor (Homo sapiens, UniProt P06401)
T3 sequence (P06401 whole entry): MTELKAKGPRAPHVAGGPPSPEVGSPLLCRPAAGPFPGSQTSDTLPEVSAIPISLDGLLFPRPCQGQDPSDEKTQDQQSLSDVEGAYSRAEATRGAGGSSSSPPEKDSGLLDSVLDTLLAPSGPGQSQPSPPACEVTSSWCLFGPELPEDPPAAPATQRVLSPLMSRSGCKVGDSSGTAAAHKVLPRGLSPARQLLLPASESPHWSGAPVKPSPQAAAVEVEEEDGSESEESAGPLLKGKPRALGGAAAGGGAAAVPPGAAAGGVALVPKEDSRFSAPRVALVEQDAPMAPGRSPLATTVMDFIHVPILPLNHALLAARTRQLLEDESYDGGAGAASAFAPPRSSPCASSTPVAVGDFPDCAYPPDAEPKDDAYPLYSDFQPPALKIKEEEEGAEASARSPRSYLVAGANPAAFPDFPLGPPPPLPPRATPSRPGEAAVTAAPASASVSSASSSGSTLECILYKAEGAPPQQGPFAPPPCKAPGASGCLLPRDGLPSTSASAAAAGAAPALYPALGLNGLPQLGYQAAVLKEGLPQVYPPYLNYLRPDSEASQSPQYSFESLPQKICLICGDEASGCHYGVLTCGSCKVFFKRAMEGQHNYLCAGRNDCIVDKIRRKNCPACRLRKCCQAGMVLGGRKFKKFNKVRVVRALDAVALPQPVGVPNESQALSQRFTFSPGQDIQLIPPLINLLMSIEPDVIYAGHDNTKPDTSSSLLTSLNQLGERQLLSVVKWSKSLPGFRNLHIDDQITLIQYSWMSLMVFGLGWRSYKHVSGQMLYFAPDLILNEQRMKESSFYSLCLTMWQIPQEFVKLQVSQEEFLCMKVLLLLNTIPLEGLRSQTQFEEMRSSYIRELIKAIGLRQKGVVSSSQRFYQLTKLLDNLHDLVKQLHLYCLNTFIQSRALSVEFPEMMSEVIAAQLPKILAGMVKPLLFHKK

[5] = target: Sodium-dependent dopamine transporter (Homo sapiens, UniProt Q01959)
Thromboxane A2 receptor [6] = target: T4, Thromboxane A2 receptor (Homo sapiens, UniProt P21731); assay type: functional, cell-based
T4 sequence (P21731 whole entry): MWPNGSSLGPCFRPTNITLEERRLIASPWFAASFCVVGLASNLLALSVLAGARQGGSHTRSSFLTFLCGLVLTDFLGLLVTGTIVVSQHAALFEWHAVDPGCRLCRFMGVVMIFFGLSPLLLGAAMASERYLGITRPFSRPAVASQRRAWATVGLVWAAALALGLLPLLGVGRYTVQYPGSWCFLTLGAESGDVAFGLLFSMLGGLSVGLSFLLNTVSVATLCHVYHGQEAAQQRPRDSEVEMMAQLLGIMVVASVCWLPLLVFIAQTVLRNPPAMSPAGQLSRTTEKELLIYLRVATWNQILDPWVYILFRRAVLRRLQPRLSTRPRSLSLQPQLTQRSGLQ

Thromboxane A2 receptor [7] = target: T4, Thromboxane A2 receptor; assay type: functional, cell-based; remark: listed apart in the source
Further: assay procedure not described here.

Sequence of cGMP-inhibited 3',5'-cyclic phosphodiesterase 3A (Q14432 whole entry): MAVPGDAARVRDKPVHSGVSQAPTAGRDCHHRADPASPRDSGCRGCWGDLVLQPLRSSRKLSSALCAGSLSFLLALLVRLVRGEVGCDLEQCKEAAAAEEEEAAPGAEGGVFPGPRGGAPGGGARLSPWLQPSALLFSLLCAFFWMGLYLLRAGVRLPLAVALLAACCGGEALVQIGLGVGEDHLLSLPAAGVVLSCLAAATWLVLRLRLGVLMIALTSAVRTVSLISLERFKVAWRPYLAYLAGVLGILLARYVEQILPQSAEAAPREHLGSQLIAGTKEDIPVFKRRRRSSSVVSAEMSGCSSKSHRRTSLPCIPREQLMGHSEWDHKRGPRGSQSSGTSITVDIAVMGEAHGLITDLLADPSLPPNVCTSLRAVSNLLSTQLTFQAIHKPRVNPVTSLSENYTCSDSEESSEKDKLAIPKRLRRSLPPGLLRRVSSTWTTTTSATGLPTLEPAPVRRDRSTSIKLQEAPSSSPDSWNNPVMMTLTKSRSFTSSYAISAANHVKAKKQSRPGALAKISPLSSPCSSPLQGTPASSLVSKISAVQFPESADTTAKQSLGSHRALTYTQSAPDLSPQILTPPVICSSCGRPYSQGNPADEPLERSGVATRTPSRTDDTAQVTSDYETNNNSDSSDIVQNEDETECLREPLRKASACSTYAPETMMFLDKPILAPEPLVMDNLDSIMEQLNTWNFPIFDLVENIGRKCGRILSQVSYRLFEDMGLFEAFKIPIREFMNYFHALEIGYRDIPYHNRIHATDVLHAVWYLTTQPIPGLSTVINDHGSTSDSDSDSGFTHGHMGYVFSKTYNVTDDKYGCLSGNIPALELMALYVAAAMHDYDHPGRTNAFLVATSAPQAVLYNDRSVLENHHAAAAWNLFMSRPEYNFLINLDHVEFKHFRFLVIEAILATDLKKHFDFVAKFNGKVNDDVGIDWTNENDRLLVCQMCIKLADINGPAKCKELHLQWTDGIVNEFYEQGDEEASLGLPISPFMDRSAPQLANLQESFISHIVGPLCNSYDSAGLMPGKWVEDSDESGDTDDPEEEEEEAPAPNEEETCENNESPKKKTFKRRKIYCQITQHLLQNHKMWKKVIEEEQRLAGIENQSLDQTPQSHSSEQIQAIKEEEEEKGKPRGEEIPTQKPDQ
Sequence of Sodium-dependent dopamine transporter (Q01959 whole entry): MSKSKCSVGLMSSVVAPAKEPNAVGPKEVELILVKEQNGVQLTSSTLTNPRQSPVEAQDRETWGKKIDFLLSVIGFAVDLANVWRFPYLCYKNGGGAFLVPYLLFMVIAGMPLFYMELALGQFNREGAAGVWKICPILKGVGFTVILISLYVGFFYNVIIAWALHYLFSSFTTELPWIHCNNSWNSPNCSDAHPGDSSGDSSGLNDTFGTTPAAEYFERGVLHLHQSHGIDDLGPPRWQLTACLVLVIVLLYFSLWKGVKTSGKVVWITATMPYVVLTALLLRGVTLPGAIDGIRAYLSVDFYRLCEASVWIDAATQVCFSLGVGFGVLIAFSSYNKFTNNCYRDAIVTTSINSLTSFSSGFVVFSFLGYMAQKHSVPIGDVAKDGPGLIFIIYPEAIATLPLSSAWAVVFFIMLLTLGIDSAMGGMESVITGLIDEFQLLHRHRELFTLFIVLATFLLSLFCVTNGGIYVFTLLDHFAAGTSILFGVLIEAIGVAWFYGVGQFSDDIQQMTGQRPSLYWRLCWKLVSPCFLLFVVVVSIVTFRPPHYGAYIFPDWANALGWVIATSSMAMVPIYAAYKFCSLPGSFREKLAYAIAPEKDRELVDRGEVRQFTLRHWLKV
Sequence of D(3) dopamine receptor (P35462 whole entry): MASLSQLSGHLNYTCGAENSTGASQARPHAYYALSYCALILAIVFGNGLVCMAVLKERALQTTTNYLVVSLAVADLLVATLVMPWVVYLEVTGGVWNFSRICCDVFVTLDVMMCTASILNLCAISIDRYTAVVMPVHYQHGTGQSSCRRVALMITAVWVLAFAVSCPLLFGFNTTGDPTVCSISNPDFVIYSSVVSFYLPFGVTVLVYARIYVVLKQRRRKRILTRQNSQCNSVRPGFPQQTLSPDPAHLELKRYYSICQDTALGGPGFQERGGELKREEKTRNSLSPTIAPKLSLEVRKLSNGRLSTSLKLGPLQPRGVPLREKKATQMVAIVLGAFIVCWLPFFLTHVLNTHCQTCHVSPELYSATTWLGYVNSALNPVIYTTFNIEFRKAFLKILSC
Sequence of D(1A) dopamine receptor (P21728 whole entry): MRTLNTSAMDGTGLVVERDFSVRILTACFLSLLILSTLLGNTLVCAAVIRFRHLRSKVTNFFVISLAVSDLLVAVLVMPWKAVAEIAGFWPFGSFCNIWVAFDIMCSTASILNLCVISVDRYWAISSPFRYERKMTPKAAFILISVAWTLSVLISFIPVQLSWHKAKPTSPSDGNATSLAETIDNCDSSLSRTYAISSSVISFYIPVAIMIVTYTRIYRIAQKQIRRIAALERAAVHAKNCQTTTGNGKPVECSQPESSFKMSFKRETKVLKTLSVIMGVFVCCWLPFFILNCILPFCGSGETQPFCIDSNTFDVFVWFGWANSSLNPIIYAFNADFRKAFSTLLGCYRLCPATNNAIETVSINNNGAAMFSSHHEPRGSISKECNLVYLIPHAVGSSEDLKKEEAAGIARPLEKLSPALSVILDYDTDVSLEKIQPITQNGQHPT
Sequence of Voltage-gated inwardly rectifying potassium channel KCNH2 (Q12809 whole entry): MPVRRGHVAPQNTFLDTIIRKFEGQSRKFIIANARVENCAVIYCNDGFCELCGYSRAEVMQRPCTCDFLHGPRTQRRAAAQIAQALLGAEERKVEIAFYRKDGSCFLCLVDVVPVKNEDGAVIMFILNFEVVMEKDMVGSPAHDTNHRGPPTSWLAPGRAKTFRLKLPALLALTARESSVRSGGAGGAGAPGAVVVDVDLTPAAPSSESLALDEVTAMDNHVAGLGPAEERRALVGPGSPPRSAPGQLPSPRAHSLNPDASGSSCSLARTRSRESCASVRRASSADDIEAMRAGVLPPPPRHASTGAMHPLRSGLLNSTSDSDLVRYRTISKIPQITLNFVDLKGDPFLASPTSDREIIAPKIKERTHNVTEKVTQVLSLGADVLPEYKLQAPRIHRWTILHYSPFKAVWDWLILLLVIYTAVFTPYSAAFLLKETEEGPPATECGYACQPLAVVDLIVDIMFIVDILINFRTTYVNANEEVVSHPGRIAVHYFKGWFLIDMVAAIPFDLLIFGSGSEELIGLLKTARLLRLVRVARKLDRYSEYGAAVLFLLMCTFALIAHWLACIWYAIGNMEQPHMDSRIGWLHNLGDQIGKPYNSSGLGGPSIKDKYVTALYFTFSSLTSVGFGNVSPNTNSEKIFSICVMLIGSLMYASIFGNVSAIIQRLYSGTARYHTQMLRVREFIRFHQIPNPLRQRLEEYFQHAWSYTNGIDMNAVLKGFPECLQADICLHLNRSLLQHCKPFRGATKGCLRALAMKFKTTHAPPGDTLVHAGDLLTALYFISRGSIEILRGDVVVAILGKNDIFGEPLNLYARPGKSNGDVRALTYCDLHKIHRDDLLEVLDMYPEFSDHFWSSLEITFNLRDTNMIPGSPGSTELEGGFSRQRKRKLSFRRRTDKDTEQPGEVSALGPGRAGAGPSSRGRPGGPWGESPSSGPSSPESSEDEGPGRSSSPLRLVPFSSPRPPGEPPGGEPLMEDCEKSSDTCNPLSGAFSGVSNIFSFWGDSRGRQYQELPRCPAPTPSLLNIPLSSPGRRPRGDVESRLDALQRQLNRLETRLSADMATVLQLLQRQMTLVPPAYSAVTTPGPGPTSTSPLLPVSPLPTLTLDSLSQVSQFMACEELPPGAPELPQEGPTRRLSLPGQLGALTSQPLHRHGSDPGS
Sequence of Acetylcholinesterase (P22303 whole entry): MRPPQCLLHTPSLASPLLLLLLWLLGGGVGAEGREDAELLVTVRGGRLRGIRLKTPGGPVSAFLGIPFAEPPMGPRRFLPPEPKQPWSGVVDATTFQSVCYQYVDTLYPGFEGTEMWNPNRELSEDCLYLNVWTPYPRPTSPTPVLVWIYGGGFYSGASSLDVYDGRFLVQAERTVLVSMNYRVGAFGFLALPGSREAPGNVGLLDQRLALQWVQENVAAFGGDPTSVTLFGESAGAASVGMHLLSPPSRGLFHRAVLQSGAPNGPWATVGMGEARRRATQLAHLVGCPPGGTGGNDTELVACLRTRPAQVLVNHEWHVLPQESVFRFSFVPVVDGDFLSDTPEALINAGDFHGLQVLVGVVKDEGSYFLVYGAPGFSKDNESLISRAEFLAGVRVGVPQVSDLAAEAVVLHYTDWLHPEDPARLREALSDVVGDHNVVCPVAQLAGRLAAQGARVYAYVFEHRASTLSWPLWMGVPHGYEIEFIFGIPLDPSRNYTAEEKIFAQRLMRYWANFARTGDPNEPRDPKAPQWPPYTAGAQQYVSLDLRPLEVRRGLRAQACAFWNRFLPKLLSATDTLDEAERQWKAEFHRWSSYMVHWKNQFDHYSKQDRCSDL

Q: Which AC50 (Acetylcholinesterase) does the source give for `CO[C@H]1[C@@H](O)C[C@H](O[C@H]2[C@@H](O)C[C@H](O[C@H]3[C@@H](O)C[C@H](O[C@H]4CC[C@@]5(C)[C@H](CC[C@@H]6[C@@H]5C[C@@H](O)[C@]5(C)[C@@H](C7=CC(=O)OC7)CC[C@]65O)C4)O[C@@H]3C)O[C@@H]2C)O[C@@H]1C` [METILDIGOXIN] here?
A: Its AC50 is over 30 µM.

Q: And the AC50 [1]?
A: Its AC50 is over 30 µM.

Q: What about the AC50 [2] of the same molecule?
A: The AC50 was over 30 µM.

Q: What about the AC50 (D(1A) dopamine receptor) of the same molecule?
A: The AC50 was over 30 µM.

Q: And the AC50 (D(3) dopamine receptor)?
A: The AC50 was over 30 µM.

Q: What about the AC50 (Prothrombin) of the same molecule?
A: Its AC50 is over 30 µM.

Q: And the AC50 [3]?
A: Its AC50 is over 30 µM.

Q: And the AC50 [4]?
A: The AC50 was over 30 µM.

Q: And the AC50 (Progesterone receptor)?
A: Its AC50 is over 30 µM.

Q: And the AC50 [5]?
A: The AC50 was over 30 µM.

Q: And the AC50 (Thromboxane A2 receptor [6])?
A: The AC50 was over 30 µM.

Q: What about the AC50 (Thromboxane A2 receptor [7]) of the same molecule?
A: Its AC50 is over 30 µM.

Q: `CCOC(=O)[C@H](CCc1ccccc1)N[C@@H](C)C(=O)N1Cc2cc(OC)c(OC)cc2C[C@H]1C(=O)O` [MOEXIPRIL] was tested. Which AC50 (Acetylcholinesterase) did it give?
A: The AC50 was over 30 µM.

Q: And the AC50 [1]?
A: The AC50 was over 30 µM.

Q: What about the AC50 [2] of the same molecule?
A: Its AC50 is over 30 µM.

Q: What about the AC50 (D(1A) dopamine receptor) of the same molecule?
A: Its AC50 is over 30 µM.

Q: And the AC50 (D(3) dopamine receptor)?
A: Its AC50 is over 30 µM.

Q: What about the AC50 (Prothrombin) of the same molecule?
A: The AC50 was over 30 µM.

Q: And the AC50 [3]?
A: The AC50 was over 30 µM.

Q: And the AC50 [4]?
A: Its AC50 is 25.4 µM.

Q: What about the AC50 (Progesterone receptor) of the same molecule?
A: Its AC50 is over 30 µM.

Q: What about the AC50 [5] of the same molecule?
A: Its AC50 is over 30 µM.

Q: And the AC50 (Thromboxane A2 receptor [6])?
A: The AC50 was over 30 µM.

Q: And the AC50 (Thromboxane A2 receptor [7])?
A: The AC50 was over 30 µM.

Q: What does the source list for `CCN(CC)CCOC(=O)C(Cc1cccc2ccccc12)CC1CCCO1` (configuration not stated) [NAFRONYL]?
A: AC50 (Acetylcholinesterase): > 30 µM; AC50 [1]: > 30 µM; AC50 [2]: > 30 µM; AC50 (D(1A) dopamine receptor): 23.5 µM; AC50 (D(3) dopamine receptor): 10.1 µM; AC50 (Prothrombin): > 30 µM; AC50 [3]: 6.9 µM; AC50 [4]: > 30 µM; AC50 (Progesterone receptor): > 30 µM; AC50 [5]: > 30 µM; AC50 (Thromboxane A2 receptor [6]): > 30 µM; AC50 (Thromboxane A2 receptor [7]): > 30 µM

Q: Which AC50 (Acetylcholinesterase) does the source give for `N[C@@H](Cc1c[nH]c2ccc(O)cc12)C(=O)O` [OXITRIPTAN] here?
A: Its AC50 is over 30 µM.

Q: And the AC50 [1]?
A: Its AC50 is over 30 µM.

Q: And the AC50 [2]?
A: The AC50 was over 30 µM.

Q: And the AC50 (D(1A) dopamine receptor)?
A: The AC50 was over 30 µM.

Q: What about the AC50 (D(3) dopamine receptor) of the same molecule?
A: The AC50 was over 30 µM.

Q: And the AC50 (Prothrombin)?
A: The AC50 was over 30 µM.

Q: What about the AC50 [3] of the same molecule?
A: Its AC50 is over 30 µM.

Q: What about the AC50 [4] of the same molecule?
A: Its AC50 is over 30 µM.

Q: What about the AC50 (Progesterone receptor) of the same molecule?
A: The AC50 was over 30 µM.

Q: What about the AC50 [5] of the same molecule?
A: The AC50 was over 30 µM.

Q: What about the AC50 (Thromboxane A2 receptor [6]) of the same molecule?
A: Its AC50 is over 30 µM.

Q: What about the AC50 (Thromboxane A2 receptor [7]) of the same molecule?
A: Its AC50 is over 30 µM.

Q: How did the AC50 (Acetylcholinesterase) turn out when `C1CNCCN1` [PIPERAZINE] was run?
A: Its AC50 is over 30 µM.

Q: And the AC50 [1]?
A: The AC50 was over 30 µM.

Q: And the AC50 [2]?
A: Its AC50 is over 30 µM.

Q: What about the AC50 (D(1A) dopamine receptor) of the same molecule?
A: The AC50 was over 30 µM.

Q: What about the AC50 (D(3) dopamine receptor) of the same molecule?
A: Its AC50 is over 30 µM.

Q: And the AC50 (Prothrombin)?
A: Its AC50 is over 30 µM.

Q: What about the AC50 [3] of the same molecule?
A: Its AC50 is over 30 µM.

Q: And the AC50 [4]?
A: Its AC50 is over 30 µM.

Q: What about the AC50 (Progesterone receptor) of the same molecule?
A: The AC50 was over 30 µM.

Q: And the AC50 [5]?
A: The AC50 was over 30 µM.

Q: And the AC50 (Thromboxane A2 receptor [6])?
A: Its AC50 is over 30 µM.

Q: What about the AC50 (Thromboxane A2 receptor [7]) of the same molecule?
A: The AC50 was over 30 µM.

Q: How did the AC50 (Acetylcholinesterase) turn out when `COCCCOc1ccnc(C[S+]([O-])c2nc3ccccc3[nH]2)c1C` (configuration not stated) [RABEPRAZOLE] was run?
A: The AC50 was 16.7 µM.

Q: And the AC50 [1]?
A: The AC50 was over 30 µM.

Q: What about the AC50 [2] of the same molecule?
A: Its AC50 is over 30 µM.

Q: What about the AC50 (D(1A) dopamine receptor) of the same molecule?
A: Its AC50 is over 30 µM.

Q: And the AC50 (D(3) dopamine receptor)?
A: The AC50 was over 30 µM.

Q: And the AC50 (Prothrombin)?
A: The AC50 was over 30 µM.

Q: What about the AC50 [3] of the same molecule?
A: Its AC50 is 5.33 µM.

Q: And the AC50 [4]?
A: Its AC50 is over 30 µM.

Q: What about the AC50 (Progesterone receptor) of the same molecule?
A: Its AC50 is over 30 µM.

Q: What about the AC50 [5] of the same molecule?
A: Its AC50 is over 30 µM.

Q: And the AC50 (Thromboxane A2 receptor [6])?
A: Its AC50 is over 30 µM.

Q: What about the AC50 (Thromboxane A2 receptor [7]) of the same molecule?
A: Its AC50 is over 30 µM.
